Test results reported in patent US10961247B2, “Pyrazolopyrimidine derivatives as kinase inhibitor” (Daewoong Pharmaceutical Co., Ltd., priority 2016, dated 2021).

Tests used:
[1] = molecular target: Recombinant purified human BTK (Homo sapiens (Human), UniProt Q06187); test: BTK enzyme inhibitory activity, ADP Glo kinase assay (Promega V9071); format: biochemical; conditions: for inhibition at 0.1 µM: 100 nM compound; for IC50: ATP 10 uM, 1 hour 30° C.
Procedure: (§1) JAK3 and BTK kinase inhibitory activities were measured for the compounds prepared in the above Examples through in vitro analysis on the ADP Glow (Glo) platform.
(§2) Specifically, the inhibitory activities of JAK3 and BTK kinase were measured using a JAK3 kinase assay kit (Promega, V9441) and a BTK kinase assay kit (Promega, V9071) which were purchased from Promega. Recombinant purified human JAK3 and BTK were diluted with 1×kinase reaction buffer (JAK3: 40 mM Tris-Cl, pH 7.5, 20 mM MgCl2, 0.1 mg/mL BSA and 50 uM DTT/BTK: 40 mM Tris-Cl, pH 7.5, 20 mM MgCl2, 0.1 mg/mL BSA, 2 mM MnCl2 and 50 uM DTT) and added to a 96 well plate (JAK3: final concentration of 4 ng per reaction/BTK: final concentration of 8 ng per reaction). The compounds were treated so as to be finally a 1% DMSO aqueous solution, and a substrate cocktail containing ATP (JAK3: final concentration of 5 uM/BTK: final concentration of 10 uM) and 0.2 μg/μL of Poly(Glu4, Tyr1) peptide (JAK3 and BTK final concentration) in the total […] reactants was added to a 96-well plate to initiate enzymatic reaction. After incubation (30° C.) for 1 hour, equivalent volume ([…] per reaction) of ADP Glo was added and incubated (30° C.) for 40 minutes at room temperature. Then, a kinase detection reagent ([…] per reaction) was added and incubated (30° C.) for 30 minutes at room temperature. The kinase activity was measured by chemiluminescence according to the instructions of ADP Glo kinase assay kit, and the inhibitory activity of the compounds according to the present invention was calculated. For the analysis of the results of each compound, Microsoft Excel was used, and IC50 values were calculated by SigmaPlot software.

[2] = molecular target: Recombinant purified human JAK3 (Homo sapiens (Human), UniProt P52333); test: JAK3 enzyme inhibitory activity, ADP Glo kinase assay (Promega V9441); format: biochemical; conditions: ATP 5 uM, 1 hour 30° C.
Procedure: as §1, §2

Recombinant purified human JAK3, sequence (P52333 whole entry): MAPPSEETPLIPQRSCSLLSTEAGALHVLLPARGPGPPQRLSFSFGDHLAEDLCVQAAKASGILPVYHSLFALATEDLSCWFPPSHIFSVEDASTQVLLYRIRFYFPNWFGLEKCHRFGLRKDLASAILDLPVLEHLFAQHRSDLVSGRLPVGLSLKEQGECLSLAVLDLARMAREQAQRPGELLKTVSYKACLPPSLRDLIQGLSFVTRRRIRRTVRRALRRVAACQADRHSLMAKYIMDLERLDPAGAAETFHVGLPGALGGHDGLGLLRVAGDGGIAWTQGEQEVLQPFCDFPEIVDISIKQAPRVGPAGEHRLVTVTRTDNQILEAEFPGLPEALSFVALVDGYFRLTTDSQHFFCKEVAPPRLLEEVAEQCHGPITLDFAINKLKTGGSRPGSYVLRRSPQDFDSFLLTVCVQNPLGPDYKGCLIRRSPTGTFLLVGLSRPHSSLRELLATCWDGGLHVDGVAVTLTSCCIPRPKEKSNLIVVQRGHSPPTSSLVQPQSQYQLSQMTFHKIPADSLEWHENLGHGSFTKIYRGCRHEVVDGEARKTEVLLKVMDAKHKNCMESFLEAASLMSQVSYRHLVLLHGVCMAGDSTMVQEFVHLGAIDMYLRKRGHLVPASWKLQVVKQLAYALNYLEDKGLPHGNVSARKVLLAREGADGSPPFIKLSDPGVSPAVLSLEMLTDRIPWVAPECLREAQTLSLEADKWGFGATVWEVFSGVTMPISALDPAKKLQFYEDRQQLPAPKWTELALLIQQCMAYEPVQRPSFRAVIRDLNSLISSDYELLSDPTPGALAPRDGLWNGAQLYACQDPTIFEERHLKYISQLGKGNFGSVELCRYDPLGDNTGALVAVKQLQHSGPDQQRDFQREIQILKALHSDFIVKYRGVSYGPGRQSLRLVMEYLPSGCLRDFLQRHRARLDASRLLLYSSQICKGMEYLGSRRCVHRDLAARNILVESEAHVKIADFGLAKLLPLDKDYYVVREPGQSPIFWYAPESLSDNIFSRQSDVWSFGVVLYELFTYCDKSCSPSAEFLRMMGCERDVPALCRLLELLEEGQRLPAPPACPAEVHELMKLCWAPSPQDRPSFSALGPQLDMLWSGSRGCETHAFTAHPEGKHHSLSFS
Recombinant purified human BTK, sequence (Q06187 whole entry): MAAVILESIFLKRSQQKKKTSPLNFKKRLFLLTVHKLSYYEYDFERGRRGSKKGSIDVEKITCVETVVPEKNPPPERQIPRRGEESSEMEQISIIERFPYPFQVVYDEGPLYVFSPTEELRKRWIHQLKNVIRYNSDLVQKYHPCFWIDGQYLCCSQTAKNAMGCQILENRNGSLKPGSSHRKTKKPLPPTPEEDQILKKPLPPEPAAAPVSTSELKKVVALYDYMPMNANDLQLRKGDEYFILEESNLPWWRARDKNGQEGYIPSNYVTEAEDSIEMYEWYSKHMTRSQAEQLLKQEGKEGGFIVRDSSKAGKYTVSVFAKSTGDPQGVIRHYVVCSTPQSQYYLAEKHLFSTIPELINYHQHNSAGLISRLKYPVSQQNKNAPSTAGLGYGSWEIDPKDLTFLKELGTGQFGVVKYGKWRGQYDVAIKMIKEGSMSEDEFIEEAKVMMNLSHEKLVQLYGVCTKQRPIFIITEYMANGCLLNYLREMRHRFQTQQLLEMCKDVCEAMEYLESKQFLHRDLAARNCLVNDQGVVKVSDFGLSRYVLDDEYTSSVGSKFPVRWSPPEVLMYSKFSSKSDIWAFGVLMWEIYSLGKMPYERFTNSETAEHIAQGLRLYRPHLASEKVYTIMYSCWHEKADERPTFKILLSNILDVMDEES

Compound	inhibition at 0.1 µM [1] [%]	IC50 [2] [nM]	IC50 [1] [nM]
C=CC(=O)N1CC[C@@H](C)[C@@H](Nc2nc(Nc3cnn(CC)c3)nc3[nH]ccc23)C1 [Example 107, 1-((3R,4R)-3-((2-((1-ethyl-1H-pyrazol-4-yl)amino)-7H-pyrrolo[2,3-d]pyrimidin-4-yl)amino)-4-methylpiperidin-1-yl)prop-2-en-1-one]	–	3.7	7.8
C=CC(=O)N1CCC[C@@H](Nc2nc(Nc3cnoc3)nc3[nH]nc(SC)c23)C1 [Example 130, (R)-1-(3-((6-(isoxazol-4-ylamino)-3-(methylthio)-1H-pyrazolo[3,4-d]pyrimidin-4-yl)amino)piperidin-1-yl)prop-2-en-1-one]	–	9	1.1
C=CC(=O)N1CCC[C@@H](Sc2nc(Nc3cnn(CC)c3)nc3[nH]cc(Cl)c23)C1 [Example 109, (R)-1-(3-((5-chloro-2-((1-ethyl-1H-pyrazol-4-yl)amino)-7H-pyrrolo[2,3-d]pyrimidin-4-yl)thio)piperidin-1-yl)prop-2-en-1-one]	–	0.3	2
C=CC(=O)N1CCC[C@@H](Nc2nc(Nc3cnn(CC)c3)nc3[nH]nc(Cl)c23)C1 [Example 46, (R)-1-(3-(3-chloro-6-(1-ethyl-1H-pyrazol-4-ylamino)-1H-pyrazolo[3,4-d]pyrimidin-4-ylamino)piperidin-1-yl)prop-2-en-1-one]	–	0.6	2

Results, then the compound that gave them:

inhibition at 0.1 µM [1] [%]	IC50 [2] [nM]	IC50 [1] [nM]	Compound
47.1	–	–	C=CC(=O)NC1CCCC(Nc2nc(Nc3ccc(N4CCN(C)CC4)cc3)nc3[nH]ccc23)C1 (stereo not shown) [Example 29, N-(3-(2-(4-(4-methylpiperazin-1-yl)phenylamino)-7H-pyrrolo[2,3-d]pyrimidin-4-ylamino)cyclohexyl)acrylamide]
3.3	–	–	C[C@@H]1CCN(C(=O)CC#N)C[C@@H]1N(C)c1nc(Nc2ccc(N3CCN(C)CC3)cc2)nc2[nH]ccc12 [Example 28, 3-((3R,4R)-4-methyl-3-(methyl(2-(4-(4-methylpiperazin-1-yl)phenylamino)-7H-pyrrolo[2,3-d]pyrimidin-4-yl)amino)piperidin-1-yl)-3-oxopropanenitrile]
–	19.3	165	CC#CC(=O)N1CCC[C@@H](Nc2nc(Nc3ccc(N4CCN(C)CC4)cc3)nc3[nH]cc(Cl)c23)C1 [Example 143, (R)-1-(3-((5-chloro-2-((4-(4-methylpiperazin-1-yl)phenyl)amino)-7H-pyrrolo[2,3-d]pyrimidin-4-yl)amino)piperidin-1-yl)but-2-yn-1-one]
48	–	–	C=CC(=O)N1CC[C@@H](C)[C@@H](N(C)c2nc(Nc3ccc(N4CCN(C)CC4)cc3)nc3[nH]ccc23)C1 [Example 27, 1-((3R,4R)-4-methyl-3-(methyl(2-(4-(4-methylpiperazin-1-yl)phenylamino)-7H-pyrrolo[2,3-d]pyrimidin-4-yl)amino)piperidin-1-yl)prop-2-en-1-one]
